Activity calls are given as the source filed them.
What was measured:
Escherichia coli = experiment: microbe, parasite or virus in culture
[1] = biological target: T1, Sentrin-specific protease 6 (Homo sapiens, UniProt Q9GZR1); type: functional;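 further: Luminescence-based dose-response confirmatory assay of SENP6 inhibition, following up an ultra-high-throughput screen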
T1 sequence (Q9GZR1 whole entry): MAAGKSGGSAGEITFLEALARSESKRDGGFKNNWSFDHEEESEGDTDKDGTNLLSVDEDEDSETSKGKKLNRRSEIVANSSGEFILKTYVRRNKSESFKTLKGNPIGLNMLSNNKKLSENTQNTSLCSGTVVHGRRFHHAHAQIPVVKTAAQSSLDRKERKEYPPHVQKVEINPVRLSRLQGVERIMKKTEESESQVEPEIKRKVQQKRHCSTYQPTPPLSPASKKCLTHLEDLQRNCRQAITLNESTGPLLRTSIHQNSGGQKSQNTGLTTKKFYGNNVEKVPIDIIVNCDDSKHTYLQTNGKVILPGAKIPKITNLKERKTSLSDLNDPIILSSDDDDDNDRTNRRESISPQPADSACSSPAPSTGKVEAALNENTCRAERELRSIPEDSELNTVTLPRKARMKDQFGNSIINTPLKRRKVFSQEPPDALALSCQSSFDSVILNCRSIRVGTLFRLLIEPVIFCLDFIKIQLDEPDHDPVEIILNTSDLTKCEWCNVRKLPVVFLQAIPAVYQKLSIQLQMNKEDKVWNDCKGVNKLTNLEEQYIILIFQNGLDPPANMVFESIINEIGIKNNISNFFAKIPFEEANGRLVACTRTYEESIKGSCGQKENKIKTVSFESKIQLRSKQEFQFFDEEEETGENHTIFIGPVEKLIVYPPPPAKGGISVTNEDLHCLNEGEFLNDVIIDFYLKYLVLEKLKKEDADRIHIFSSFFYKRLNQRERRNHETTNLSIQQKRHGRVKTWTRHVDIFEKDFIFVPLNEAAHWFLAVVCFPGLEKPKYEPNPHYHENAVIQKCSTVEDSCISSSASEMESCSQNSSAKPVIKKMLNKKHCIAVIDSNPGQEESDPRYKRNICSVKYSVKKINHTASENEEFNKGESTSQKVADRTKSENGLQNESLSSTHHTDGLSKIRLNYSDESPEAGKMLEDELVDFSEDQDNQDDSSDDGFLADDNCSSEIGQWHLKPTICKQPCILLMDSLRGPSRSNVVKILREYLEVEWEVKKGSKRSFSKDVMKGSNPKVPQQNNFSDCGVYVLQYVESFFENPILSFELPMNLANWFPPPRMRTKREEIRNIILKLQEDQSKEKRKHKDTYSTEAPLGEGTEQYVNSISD

Caspase-3 = biological target: T2, Caspase-3 (Homo sapiens, UniProt P42574); type: functional;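 further: Dose-response selectivity test against caspase-3 for candidate inhibitors of sentrin-specific proteases (SENPs)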
T2 sequence (P42574 whole entry): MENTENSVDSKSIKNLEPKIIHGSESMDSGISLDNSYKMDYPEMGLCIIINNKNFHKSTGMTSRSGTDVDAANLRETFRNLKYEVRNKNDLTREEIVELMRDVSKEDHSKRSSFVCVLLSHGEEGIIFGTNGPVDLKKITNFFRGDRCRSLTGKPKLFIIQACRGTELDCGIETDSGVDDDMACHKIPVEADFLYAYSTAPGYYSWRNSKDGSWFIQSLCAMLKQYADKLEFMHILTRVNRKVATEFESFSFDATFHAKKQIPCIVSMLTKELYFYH

[2] = biological target: T3, Sentrin-specific protease 8 (Homo sapiens, UniProt Q96LD8); type: functional;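 further: luminescence read-out of SENP8 inhibition, dose-response confirmation following an ultra-high-throughput screen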
T3 sequence (Q96LD8 whole entry): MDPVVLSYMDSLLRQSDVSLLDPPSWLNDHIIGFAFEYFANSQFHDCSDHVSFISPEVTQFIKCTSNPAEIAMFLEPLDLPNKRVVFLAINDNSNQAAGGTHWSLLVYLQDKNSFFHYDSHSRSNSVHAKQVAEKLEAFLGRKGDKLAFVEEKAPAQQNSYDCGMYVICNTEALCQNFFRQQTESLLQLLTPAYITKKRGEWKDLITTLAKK

HeLa = experiment: ATP-based viability loss in HeLa cells – cell-based, CellTiter-Glo luminescence, cherry-pick samples, cytotoxicity control for MITF activator project, dose response (AID 540259); type: functional; conditions: Homo sapiens
[3] = biological target: T4, Sentrin-specific protease 7 (Homo sapiens, UniProt Q9BQF6); type: functional;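 further: Luminescence-based dose-response confirmation of ultra-high-throughput screening hits, measuring inhibition of SENP7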
T4 sequence (Q9BQF6 whole entry): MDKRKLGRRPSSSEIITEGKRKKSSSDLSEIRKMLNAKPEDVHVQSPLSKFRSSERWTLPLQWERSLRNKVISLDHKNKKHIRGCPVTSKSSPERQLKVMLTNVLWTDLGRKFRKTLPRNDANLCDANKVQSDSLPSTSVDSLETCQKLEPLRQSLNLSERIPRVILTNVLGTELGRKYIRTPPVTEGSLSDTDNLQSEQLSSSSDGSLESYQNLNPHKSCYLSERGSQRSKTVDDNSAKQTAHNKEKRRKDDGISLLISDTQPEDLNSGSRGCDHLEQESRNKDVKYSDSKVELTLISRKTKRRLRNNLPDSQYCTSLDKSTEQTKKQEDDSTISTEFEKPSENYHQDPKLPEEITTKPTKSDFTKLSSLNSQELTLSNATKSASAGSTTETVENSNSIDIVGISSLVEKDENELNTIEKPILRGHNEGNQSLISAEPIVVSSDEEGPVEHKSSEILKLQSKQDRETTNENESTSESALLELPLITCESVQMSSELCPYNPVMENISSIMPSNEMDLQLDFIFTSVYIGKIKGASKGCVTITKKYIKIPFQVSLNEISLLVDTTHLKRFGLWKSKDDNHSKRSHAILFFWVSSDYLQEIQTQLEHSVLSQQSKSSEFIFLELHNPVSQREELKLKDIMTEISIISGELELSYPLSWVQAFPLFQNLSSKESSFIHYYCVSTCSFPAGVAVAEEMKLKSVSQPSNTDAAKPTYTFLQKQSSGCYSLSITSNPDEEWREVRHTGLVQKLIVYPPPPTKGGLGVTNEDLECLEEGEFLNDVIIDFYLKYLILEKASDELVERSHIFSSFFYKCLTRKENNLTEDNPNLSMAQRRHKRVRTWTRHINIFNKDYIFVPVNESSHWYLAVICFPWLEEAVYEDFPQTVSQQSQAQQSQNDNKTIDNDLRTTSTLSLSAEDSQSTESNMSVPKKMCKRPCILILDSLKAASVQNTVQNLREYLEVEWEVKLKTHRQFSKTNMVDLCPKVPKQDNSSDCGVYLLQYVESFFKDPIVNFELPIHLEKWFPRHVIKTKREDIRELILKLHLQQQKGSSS

[4] = biological target: T5, Nucleotide-binding oligomerization domain-containing protein 1 (Homo sapiens, UniProt Q9Y239); experiment: blockers of NOD1 pathway activity – revised, SAR follow-up (AID 2333); type: functional
T5 sequence (Q9Y239 whole entry): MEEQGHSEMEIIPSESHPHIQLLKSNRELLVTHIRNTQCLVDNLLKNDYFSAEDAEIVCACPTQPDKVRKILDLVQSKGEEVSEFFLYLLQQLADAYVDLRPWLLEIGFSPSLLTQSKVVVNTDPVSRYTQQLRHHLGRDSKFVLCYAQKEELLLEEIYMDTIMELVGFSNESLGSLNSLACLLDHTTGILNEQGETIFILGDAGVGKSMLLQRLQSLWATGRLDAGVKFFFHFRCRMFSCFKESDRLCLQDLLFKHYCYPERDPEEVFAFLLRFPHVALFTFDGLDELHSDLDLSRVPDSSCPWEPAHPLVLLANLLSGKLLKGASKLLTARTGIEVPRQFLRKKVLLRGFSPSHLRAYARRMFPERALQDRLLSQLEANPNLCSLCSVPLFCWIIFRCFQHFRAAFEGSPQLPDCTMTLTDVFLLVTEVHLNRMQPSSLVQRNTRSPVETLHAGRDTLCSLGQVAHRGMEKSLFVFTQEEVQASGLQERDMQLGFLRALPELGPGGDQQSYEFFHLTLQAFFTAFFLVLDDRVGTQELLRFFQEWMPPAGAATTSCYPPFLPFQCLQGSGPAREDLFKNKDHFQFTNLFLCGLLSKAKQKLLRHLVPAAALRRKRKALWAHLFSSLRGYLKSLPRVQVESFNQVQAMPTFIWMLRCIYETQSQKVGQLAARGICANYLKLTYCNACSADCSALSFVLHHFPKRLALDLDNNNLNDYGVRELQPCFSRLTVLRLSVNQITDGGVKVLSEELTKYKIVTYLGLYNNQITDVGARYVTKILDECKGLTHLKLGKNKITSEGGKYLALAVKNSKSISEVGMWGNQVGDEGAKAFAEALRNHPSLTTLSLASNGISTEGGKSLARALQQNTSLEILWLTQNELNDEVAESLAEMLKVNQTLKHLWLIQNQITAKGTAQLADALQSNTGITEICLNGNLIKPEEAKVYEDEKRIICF

Tumor necrosis factor = Tumor necrosis factor (Homo sapiens, UniProt P01375); experiment: analog potency on TNFa NF-kB signaling – cell-based, revised, SAR follow-up (AID 2337); type: functional
HEK293 = experiment: cells; conditions: Homo sapiens
[5] = biological target: T6, Ubiquitin-conjugating enzyme E2 N (Homo sapiens, UniProt P61088); type: functional
T6 sequence (P61088 whole entry): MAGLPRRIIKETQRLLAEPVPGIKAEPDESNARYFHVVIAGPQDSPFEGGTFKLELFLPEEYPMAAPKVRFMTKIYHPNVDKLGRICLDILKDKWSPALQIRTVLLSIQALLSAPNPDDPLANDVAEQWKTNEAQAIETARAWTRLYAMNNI

[6] = Trypanosoma cruzi growth suppression in host cells – NIH3T3 host cells, beta-gal luminescence, confirmation (AID 2044); type: functional, cell-based;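 further: intracellular parasites grown in NIH/3T3 mouse fibroblasts as host cells; luminescent beta-galactosidase reporter signal from transgenic T. cruzi replicating inside host cells; inhibitors lower the luminescence signal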
INS1 = experiment: INS-1E survival protection against cytokine death – cell-based, luminescence, retest, dose response (AID 449756); type: functional; conditions: Rattus norvegicus;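 further: cell death triggered by IL-1 beta plus TNF-alpha plus IFN-gamma mixture; protective hits raise ATP signal compared with cytokine alone wells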
Bcl-2-related protein A1 = biological target: T7, Bcl-2-related protein A1 (Mus musculus, UniProt Q07440); type: functional;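 further: confirmatory dose–response counterscreen on Bfl-1, used to check hits from a UBC13 polyubiquitin inhibitor campaign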
T7 sequence (Q07440 whole entry): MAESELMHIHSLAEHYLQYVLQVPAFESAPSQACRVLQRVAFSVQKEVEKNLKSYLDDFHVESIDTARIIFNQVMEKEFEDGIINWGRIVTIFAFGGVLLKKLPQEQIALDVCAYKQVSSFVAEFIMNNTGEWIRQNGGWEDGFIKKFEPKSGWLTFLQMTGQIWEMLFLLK

[7] = biological target: T8, Microphthalmia-associated transcription factor (Homo sapiens, UniProt O75030); experiment: reducers of TRPM1 reporter luminescence, concentration series – cell-based, SK-MEL-5, cherry-picked, set 3, MITF inhibitor project, dose response (AID 493073); type: functional;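 further: SK-MEL-5 melanoma cells with luciferase driven by the MITF target TRPM1 promoter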
T8 sequence (O75030 whole entry): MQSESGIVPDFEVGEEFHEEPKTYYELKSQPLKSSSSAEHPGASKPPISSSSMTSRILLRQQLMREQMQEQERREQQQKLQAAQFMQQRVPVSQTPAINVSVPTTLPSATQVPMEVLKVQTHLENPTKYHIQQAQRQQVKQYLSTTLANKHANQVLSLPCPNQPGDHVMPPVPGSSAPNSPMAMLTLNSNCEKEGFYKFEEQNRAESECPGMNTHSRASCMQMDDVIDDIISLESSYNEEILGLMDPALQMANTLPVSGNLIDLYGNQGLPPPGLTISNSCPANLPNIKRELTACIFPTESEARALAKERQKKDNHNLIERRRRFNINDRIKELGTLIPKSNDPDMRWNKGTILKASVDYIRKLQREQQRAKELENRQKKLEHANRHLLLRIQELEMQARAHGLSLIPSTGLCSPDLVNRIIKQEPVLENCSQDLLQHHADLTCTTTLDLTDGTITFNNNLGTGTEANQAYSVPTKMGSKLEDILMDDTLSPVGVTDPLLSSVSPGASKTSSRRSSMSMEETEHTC

[8] = NIH3T3 cell viability loss – ATP luminescence, mouse fibroblasts, counter-screen, dose response (AID 2010); type: functional, cell-based;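 further: cells exposed to compound for about 90 hours before reading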
[9] = HEK-293T cell viability reduction – luminescence, B-cell screen hits, cytotoxicity control for BCR NF-kB inhibitor project, dose response (AID 489021); type: functional, cell-based;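 further: HEK-293T cells carrying an NF-kB luciferase reporter; cells exposed to compound for about 14 hours before viability readout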
[10] = biological target: T6, Ubiquitin-conjugating enzyme E2 N; type: functional; remark: listed apart in the source
A-375 = experiment: proliferation inhibition in MITF-low A375 cells – cell-based, cherry-pick samples, set 2, counter-screen for MITF modulator project, dose response (AID 540335); type: functional; conditions: Homo sapiens
[11] = biological target: T9, Type-1 angiotensin II receptor (Homo sapiens, UniProt P30556); experiment: antagonism of angiotensin II type 1 receptor – cell-based, uHTS hits, selectivity assay for APJ receptor antagonist project, dose response (AID 463214); type: functional;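 further: antagonist potency against angiotensin II stimulated AT1 response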
T9 sequence (P30556 whole entry): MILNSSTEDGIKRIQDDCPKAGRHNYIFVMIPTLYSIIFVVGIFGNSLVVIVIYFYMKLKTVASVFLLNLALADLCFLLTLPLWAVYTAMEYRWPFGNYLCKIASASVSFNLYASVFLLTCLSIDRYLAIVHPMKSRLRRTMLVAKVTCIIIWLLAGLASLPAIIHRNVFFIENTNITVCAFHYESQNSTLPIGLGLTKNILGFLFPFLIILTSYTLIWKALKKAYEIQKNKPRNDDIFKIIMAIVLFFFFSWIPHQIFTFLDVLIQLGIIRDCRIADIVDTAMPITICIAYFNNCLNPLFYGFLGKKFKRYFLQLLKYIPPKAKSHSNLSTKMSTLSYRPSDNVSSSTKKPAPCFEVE

Beta-galactosidase = Beta-galactosidase (Escherichia coli, UniProt Q8VNN2); experiment: PubChem AID 485352; type: functional
Beta-galactosidase, sequence (Q8VNN2 whole entry): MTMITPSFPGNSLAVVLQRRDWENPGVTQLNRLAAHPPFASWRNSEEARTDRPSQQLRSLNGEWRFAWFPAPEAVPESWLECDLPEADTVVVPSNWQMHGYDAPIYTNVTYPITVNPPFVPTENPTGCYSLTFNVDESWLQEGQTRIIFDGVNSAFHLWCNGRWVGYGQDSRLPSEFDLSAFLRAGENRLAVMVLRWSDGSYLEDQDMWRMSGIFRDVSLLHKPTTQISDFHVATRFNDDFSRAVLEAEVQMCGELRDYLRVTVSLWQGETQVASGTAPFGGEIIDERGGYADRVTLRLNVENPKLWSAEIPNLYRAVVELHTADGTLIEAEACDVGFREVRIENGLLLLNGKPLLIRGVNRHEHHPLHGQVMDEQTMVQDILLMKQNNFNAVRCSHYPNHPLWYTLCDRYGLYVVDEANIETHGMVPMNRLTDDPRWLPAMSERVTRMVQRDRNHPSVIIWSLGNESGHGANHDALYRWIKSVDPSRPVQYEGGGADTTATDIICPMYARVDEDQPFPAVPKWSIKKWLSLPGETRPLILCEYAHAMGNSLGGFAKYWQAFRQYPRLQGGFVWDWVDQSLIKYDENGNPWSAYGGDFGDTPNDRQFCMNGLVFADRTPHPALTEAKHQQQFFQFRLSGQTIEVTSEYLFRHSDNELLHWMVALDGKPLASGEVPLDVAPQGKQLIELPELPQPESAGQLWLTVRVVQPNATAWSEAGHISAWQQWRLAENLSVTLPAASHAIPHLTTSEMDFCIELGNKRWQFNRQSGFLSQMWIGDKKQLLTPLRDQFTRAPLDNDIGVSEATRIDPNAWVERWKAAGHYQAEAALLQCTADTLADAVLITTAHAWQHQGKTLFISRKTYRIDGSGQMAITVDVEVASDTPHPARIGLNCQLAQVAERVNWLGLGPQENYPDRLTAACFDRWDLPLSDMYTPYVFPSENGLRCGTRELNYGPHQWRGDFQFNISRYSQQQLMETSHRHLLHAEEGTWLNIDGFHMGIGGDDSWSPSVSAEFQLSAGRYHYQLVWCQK

Tumor necrosis factor, sequence (P01375 whole entry): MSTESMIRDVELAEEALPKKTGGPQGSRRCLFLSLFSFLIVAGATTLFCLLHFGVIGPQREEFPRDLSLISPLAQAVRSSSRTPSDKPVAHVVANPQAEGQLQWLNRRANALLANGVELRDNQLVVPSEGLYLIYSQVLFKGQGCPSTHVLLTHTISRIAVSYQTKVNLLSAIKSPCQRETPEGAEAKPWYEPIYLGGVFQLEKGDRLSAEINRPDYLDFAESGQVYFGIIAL

## CCOC(=O)C1(c2nc(N)cs2)COC(=O)C1 (configuration not stated)
Escherichia coli
  AC50: 24.9 µM (active)

## Fc1ccccc1CSc1nnc(-c2ccccc2)o1
[1]
  IC50: 36.1 µM (active)
Caspase-3
  IC50: 32 µM (active)
[2]
  IC50: 53 µM (active)
HeLa
  AC50: 74 µM (active)
[3]
  IC50: 12 µM (active)

## COc1ccc2oc(C[S+]([O-])c3ccccc3)c(C(=O)O)c2c1 (configuration not stated)
[4]
  IC50: > 20 µM (inactive)
Tumor necrosis factor
  IC50: > 20 µM (inactive)
HEK293
  IC50: > 20 µM (inactive)

## CCOc1ccc(NC(=O)CNC(=O)Cc2ccccc2)cc1
Escherichia coli
  AC50: 25 µM (active)

## COC(=O)Cn1c(C)nc2c(sc3nc(C)cc(C)c32)c1=O
HeLa
  AC50: > 350 µM (inactive)

## CCC(C)(C)c1ccc(OCCCC[n+]2ccccc2)c(C(C)(C)CC)c1
[5]
  IC50: 17.3 µM (active)
[6]
  EC50: 0.357 µM (active)
INS1
  AC50: 2 µM (active)
Bcl-2-related protein A1
  IC50: > 20 µM (inactive)
[7]
  AC50: 4.35 µM (active)
[8]
  EC50: 19.7 µM (active)
[9]
  IC50: 59.7 µM (inactive)
[10]
  IC50: 16.9 µM (active)
A-375
  AC50: 22.9 µM (active)

## NNc1nc(-c2ccccc2)cc(-c2ccc(Br)cc2)n1
[11]
  IC50: 2.09 µM (active)
Beta-galactosidase
  EC50: > 40 µM (inactive)
